Structures can show the parent of a compound that is named as a salt.

Here are results for 51 compounds from PMC5706701, “Development of a homogenous high-throughput assay for inositol hexakisphosphate kinase 1 activity” (PLoS ONE, 2017).

The experiment concerns the target T1, Human IP6K1 (Homo sapiens, UniProt Q92551).
T1 construct: GST (N, cleaved yes); made in house; host or cells: C43 E. coli, pGEX-6P-2
The experiment can be described thus: IP6K1 high-throughput screen of the Sigma LOPAC (ADP-Glo Max, single point).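 Note: final compound concentration 10µM in 5% DMSO.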 Format: biochemical. In general terms: ADP-Glo turns the ADP formed in a reaction into a luminescent signal.

[1] abbreviates: Sigma LOPAC single-point screen, ADP-Glo Max raw signal per well.
Setting [2] is: Sigma LOPAC single-point screen, Z-score from plate average and StDev.
Setting [3] is: LOPAC single-point screen, ADP-Glo Max raw signal per well.
Setting [4] is: LOPAC single-point screen, Z-score against plate average and StDev.
Where [5] appears, read: LOPAC single-point screen, ADP-Glo Max luminescence raw signal per well.
The mark [6] stands for this setting: LOPAC single-point screen, Z-score relative to plate average and StDev.
Setting [7] is: LOPAC single-point screen, Z-score from raw signal with plate average and StDev.
Setting [8] is: LOPAC single-point screen, Z-score from plate average and StDev.

T1 sequence (Q92551 whole entry): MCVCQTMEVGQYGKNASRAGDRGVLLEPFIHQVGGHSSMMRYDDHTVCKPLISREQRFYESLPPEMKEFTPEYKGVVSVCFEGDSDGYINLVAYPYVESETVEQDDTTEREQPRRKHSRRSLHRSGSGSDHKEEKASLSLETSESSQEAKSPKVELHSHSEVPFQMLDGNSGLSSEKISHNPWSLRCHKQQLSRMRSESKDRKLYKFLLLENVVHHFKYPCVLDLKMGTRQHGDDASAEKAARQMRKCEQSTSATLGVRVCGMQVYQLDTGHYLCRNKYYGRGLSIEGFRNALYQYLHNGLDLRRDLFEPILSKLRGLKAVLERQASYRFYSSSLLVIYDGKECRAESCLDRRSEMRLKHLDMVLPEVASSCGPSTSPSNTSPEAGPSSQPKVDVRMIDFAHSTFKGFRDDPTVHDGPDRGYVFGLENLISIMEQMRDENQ

`CC(=O)O[C@]1(C(C)=O)CC[C@H]2[C@@H]3C=C(Cl)C4=CC(=O)[C@@H]5C[C@@H]5[C@]4(C)[C@H]3CC[C@@]21C` [Cyproterone acetate]: the “Raw Signal” value under setting [1] came out at 63165. In addition, the Z-score under setting [2] stood at 0.925.

As to `NCCSSCCN` [Cystamine dihydrochloride], the “Raw Signal” value under setting [3] was 58178. This compound registered a Z-score under setting [4] of 0.04666.

As for `Cl.NCCS` [Cysteamine hydrochloride], the “Raw Signal” value under setting [5] is recorded as 49886. Under setting [6], this compound had a Z-score of -0.7574.

For the compound `N[C@H](CCCCCP(=O)(O)O)C(=O)O` [D(-)-2-Amino-7-phosphonoheptanoic acid], under setting [1], the “Raw Signal” value came out at 62778. For the same compound, the Z-score under setting [2] was determined as 0.8568.

Consider `S=C([S-])OC1CC2CC1C1CCCC21.[K+]` [D-609 potassium], for which the “Raw Signal” value under setting [3] turned out to be 55448. Moreover, the Z-score under setting [7] was -0.1119.

For `N[C@@H]1CON=C1O` [D-Cycloserine], the “Raw Signal” value under setting [3] turned out to be 55913. Moreover, under setting [7], the Z-score is recorded as -0.3523.

As to `N[C@H](CO)C(=O)O` [D-Serine], the “Raw Signal” value under setting [3] was 53973. The same compound had a Z-score under setting [7] of -0.3984.

Take `OCC1OC(n2cnc3ccccc32)C(O)C1O` [D-ribofuranosylbenzimidazole]: under setting [5], the “Raw Signal” value was determined as 49673. In addition, the Z-score under setting [6] was -1.116.

Turning to `Clc1ccc(N2C[C@H]3CC[C@@H](C2)N3)nn1` [DBO-83], the “Raw Signal” value under setting [3] came to 54063. The compound further came in with a Z-score under setting [7] of -0.2242.

As to `CCn1c(=O)[nH]c2cc(Cl)c(Cl)cc21` [DCEBIO], under setting [5], the “Raw Signal” value is listed as 52025. In addition, under setting [6], the Z-score is given as -0.6381.

Take `CCC(=O)N1CCN(C(=O)c2ccccc2)CC1` [DM 235]: the “Raw Signal” value under setting [3] is 55630. Also, the Z-score under setting [4] came to 0.09402.

With `O=[N+]([O-])c1cc2nc(O)c(O)nc2cc1[N+](=O)[O-]` [DNQX], the “Raw Signal” value under setting [5] is 50774. The compound also displayed a Z-score under setting [6] of -0.8922.

As for `COc1cc(OC)cc(C(CNc2ncnc3c2ncn3[C@@H]2O[C@H](CO)[C@@H](O)[C@H]2O)c2ccccc2C)c1` (stereo partly drawn) [DPMA], the “Raw Signal” value under setting [3] is 54367. Under setting [7], this compound had a Z-score of -0.1625.

For `CCN(CCCl)Cc1ccccc1Br.Cl` [DSP-4 hydrochloride], under setting [3], the “Raw Signal” value is 57186. In addition, the Z-score under setting [7] is -0.1281.

Consider `O=c1c(-c2ccc(O)cc2)coc2cc(O)ccc12` [Daidzein], for which the “Raw Signal” value under setting [1] is 57311. Further, the Z-score under setting [2] is on record as 0.4354.

For the compound `C#C[C@]1(O)CC[C@H]2[C@@H]3CCC4=Cc5oncc5C[C@]4(C)[C@H]3CC[C@@]21C` [Danazol], the “Raw Signal” value under setting [3] turned out to be 54357. The Z-score under setting [7] is -0.1645.

Regarding `O=C1CN(/N=C/c2ccc(-c3ccc([N+](=O)[O-])cc3)o2)C(O)=N1` [Dantrolene sodium], under setting [5], the “Raw Signal” value was determined as 49715. The compound also gave a Z-score under setting [6] of -1.107.

`O=c1ccc2ccc(O)c(O)c2o1` [Daphnetin]: the “Raw Signal” value under setting [3] was found to be 55045. Under setting [4], this compound displayed a Z-score of -0.02478.

In the case of `N=C(N)N1CCc2ccccc2C1` [Debrisoquin sulfate], the “Raw Signal” value under setting [5] was found to be 61933. Under setting [8], this compound gave a Z-score of 1.3741.

For `C[N+](C)(C)CCCCCCCCCC[N+](C)(C)C.[Br-].[Br-]` [Decamethonium dibromide], the “Raw Signal” value under setting [5] was determined as 52379. This compound gave a Z-score under setting [6] of -0.5662.

As for `C[C@]12CC[C@H](OS(=O)(=O)[O-])CC1=CC[C@@H]1[C@@H]2CC[C@]2(C)C(=O)CC[C@@H]12.[Na+]` [Dehydroisoandrosterone 3-sulfate sodium], under setting [3], the “Raw Signal” value is on record as 55598. The Z-score under setting [4] came to 0.08752.

With `CN(C)[C@@H]1C(O)=C(C(N)=O)C(=O)[C@@]2(O)C(O)=C3C(=O)c4c(O)ccc(Cl)c4[C@@H](O)[C@H]3C[C@@H]12` [Demeclocycline hydrochloride], under setting [5], the “Raw Signal” value was determined as 42734. Under setting [6], this compound came in with a Z-score of -2.525.

For the compound `CN(N=O)c1cc(O)ccc1O` [Dephostatin], under setting [3], the “Raw Signal” value amounted to 55962. This compound also registered a Z-score under setting [4] of 0.1615.

With `Cc1cc(N)c2ccccc2[n+]1CCCCCCCCCCCCCC[n+]1c(C)cc(N)c2ccccc21` [Dequalinium analog, C-14 linker], the “Raw Signal” value under setting [5] was found to be 52424. Further, under setting [6], the Z-score was -0.5571.

For `Cc1cc(N)c2ccccc2[n+]1CCCCCCCCCC[n+]1c(C)cc(N)c2ccccc21` [Dequalinium dichloride], the “Raw Signal” value under setting [3] was 55705. This compound also returned a Z-score under setting [4] of 0.1093.

Take `CNCCCN1c2ccccc2CCc2ccccc21` [Desipramine hydrochloride]: the “Raw Signal” value under setting [5] came out at 49945. The same compound came in with a Z-score under setting [6] of -1.061.

`CN1CC[C@@]23CCCC[C@@H]2[C@@H]1Cc1ccc(O)cc13.O=C(O)C(O)C(O)C(=O)O` [Dextrorphan D-tartrate]: under setting [5], the “Raw Signal” value turned out to be 63036. Under setting [8], the Z-score was found to be 1.598.

For `O=c1c2ccccc2[nH]c(=S)n1CCN1CCC(=C(c2ccc(F)cc2)c2ccc(F)cc2)CC1` [Diacylglycerol Kinase Inhibitor II], the “Raw Signal” value under setting [3] was 55319. The same compound returned a Z-score under setting [4] of 0.03086.

On to `Cc1nc2sccn2c(=O)c1CCN1CCC(=C(c2ccccc2)c2ccc(F)cc2)CC1` [Diacylglycerol kinase inhibitor I], for which the “Raw Signal” value under setting [1] is reported as 59347. Under setting [2], this compound gave a Z-score of 0.8489.

Take `CC1=NS(=O)(=O)c2cc(Cl)ccc2N1` [Diazoxide]: the “Raw Signal” value under setting [1] was found to be 58351. This compound also registered a Z-score under setting [2] of 0.6466.

For `O=C(O)Cc1ccccc1Nc1c(Cl)cccc1Cl` [Diclofenac sodium], the “Raw Signal” value under setting [3] was 53274. Besides, under setting [7], the Z-score is -0.3845.

Take `O=C(O)CN(CCN(CC(=O)O)CC(=O)O)CCN(CC(=O)O)CC(=O)O` [Diethylenetriaminepentaacetic acid]: the “Raw Signal” value under setting [3] amounted to 53021. Under setting [7], the Z-score is -0.4358.

`Br.CO[C@H]1CC=C2CCN3CCC4=C(CC(=O)OC4)[C@]23C1` [Dihydro-beta-erythroidine hydrobromide]: the “Raw Signal” value under setting [5] was 51044. Also, the Z-score under setting [6] is listed as -0.8373.

As to `COc1cc(CNC(=O)CCCCCCC(C)C)ccc1O` [Dihydrocapsaicin], the “Raw Signal” value under setting [3] came out at 52937. The compound further gave a Z-score under setting [7] of -0.2447.

In the case of `CC(C)[C@@]1(NC(=O)[C@@H]2C[C@@H]3c4cccc5[nH]cc(c45)C[C@H]3N(C)C2)O[C@@]2(O)[C@@H]3CCCN3C(=O)[C@H](Cc3ccccc3)N2C1=O.CS(=O)(=O)O` [Dihydroergocristine methanesulfonate], the “Raw Signal” value under setting [5] amounted to 65195. Under setting [8], the Z-score is 2.037.

As for `CN1C[C@H](C(=O)N[C@]2(C)O[C@@]3(O)[C@@H]4CCCN4C(=O)[C@H](Cc4ccccc4)N3C2=O)C[C@@H]2c3cccc4[nH]cc(c34)C[C@H]21` [Dihydroergotamine methanesulfonate], the “Raw Signal” value under setting [5] was found to be 48691. The Z-score under setting [6] was -1.315.

As to `CC(C)[C@H]1CN[C@H](C(=O)O)[C@H]1CC(=O)O` [Dihydrokainic acid], under setting [3], the “Raw Signal” value worked out at 53229. Under setting [7], this compound showed a Z-score of -0.3936.

`C[C@@H]1O[C@@H](O[C@H]2C[C@@H](O)[C@]3(CO)[C@H]4[C@H](O)C[C@]5(C)[C@@H]([C@@H]6COC(=O)C6)CC[C@]5(O)[C@@H]4CC[C@]3(O)C2)[C@H](O)[C@H](O)[C@H]1O` [Dihydroouabain]: the “Raw Signal” value under setting [5] is 48437. Under setting [6], this compound showed a Z-score of -1.3668.

In the case of `COc1cc(C(=O)OCCCN2CCCN(CCCOC(=O)c3cc(OC)c(OC)c(OC)c3)CC2)cc(OC)c1OC` [Dilazep hydrochloride], the “Raw Signal” value under setting [3] was determined as 56027. Under setting [4], the Z-score is on record as 0.1747.

Regarding `COc1ccc([C@@H]2Sc3ccccc3N(CCN(C)C)C(=O)[C@@H]2OC(C)=O)cc1` [Diltiazem hydrochloride], the “Raw Signal” value under setting [5] is recorded as 65486. Under setting [8], this compound came in with a Z-score of 2.096.

Regarding `CN(C)CCOC(c1ccccc1)c1ccccc1` [Diphenhydramine hydrochloride], the “Raw Signal” value under setting [3] came out at 54459. Under setting [7], this compound displayed a Z-score of -0.1438.

For `c1ccc2c(c1)[I+]c1ccccc1-2` [Diphenyleneiodonium chloride], under setting [1], the “Raw Signal” value came out at 59663. Under setting [2], this compound registered a Z-score of 0.9131.

As for `CCCN(CCC)CCc1ccc(O)c(O)c1` [Dipropyldopamine hydrobromide], under setting [5], the “Raw Signal” value was 52448. The same compound displayed a Z-score under setting [6] of -0.5522.

In the case of `OCCN(CCO)c1nc(N2CCCCC2)c2nc(N(CCO)CCO)nc(N3CCCCC3)c2n1` [Dipyridamole], the “Raw Signal” value under setting [5] is recorded as 52429. Under setting [6], this compound gave a Z-score of -0.5561.

As for `CC(C)N(CCC(C(N)=O)(c1ccccc1)c1ccccn1)C(C)C` (stereo not drawn) [Disopyramide phosphate], under setting [3], the “Raw Signal” value is recorded as 54365. Under setting [7], the Z-score is -0.1629.

For `CC(C)N(CCC(C(N)=O)(c1ccccc1)c1ccccn1)C(C)C` (stereo not drawn) [Disopyramide], the “Raw Signal” value under setting [5] came to 43822. Besides, the Z-score under setting [6] is given as -2.304.

`CC(CCc1ccc(O)cc1)NCCc1ccc(O)c(O)c1` (stereo not drawn) [Dobutamine hydrochloride]: the “Raw Signal” value under setting [5] is 52494. This compound yielded a Z-score under setting [6] of -0.5429.

`O=c1[nH]c2ccccc2n1CCCN1CCC(n2c(=O)[nH]c3cc(Cl)ccc32)CC1` [Domperidone]: the “Raw Signal” value under setting [5] was 51707. Also, under setting [6], the Z-score is given as -0.7027.

`NCCc1ccc(O)c(O)c1` [Dopamine hydrochloride]: the “Raw Signal” value under setting [5] is 44704. Further, the Z-score under setting [6] is on record as -2.125.

With `COc1cc2nc(N3CCN(C(=O)C4COc5ccccc5O4)CC3)nc(N)c2cc1OC` (stereo not drawn) [Doxazosin mesylate], the “Raw Signal” value under setting [1] is on record as 57817. Also, the Z-score under setting [2] was found to be 0.5382.

As for `CN(C)CCC=C1c2ccccc2COc2ccccc21` [Doxepin hydrochloride], under setting [1], the “Raw Signal” value is on record as 58742. Also, the Z-score under setting [2] is 0.726.
